Details: ICR mice, intravenous injection

CC[C@@]1(O)C[C@H](O[C@H]2C[C@H](N3CCOCC3)[C@H](O)[C@H](C)O2)c2c(O)c3c(c(O)c2[C@H]1O)C(=O)c1cccc(O)c1C3=O [M-R20X2, 3'-deamino-3'-(4-morpholinyl)-13-deoxo-10-hydroxycarminomycin]
LD50: 3.55 mg/kg
